The values below come from patent publication US20060040957A1, “BICYCLIC PYRIMIDINE MATRIX METALLOPROTEINASE INHIBITORS” (priority 2001, published 2006).

The target in data set [1] is MMP-13CD (catalytic domain of collagenase 3) (Homo sapiens, UniProt P45452). Put plainly: Thiopeptolide substrate hydrolysis assay, MMP-13CD. Format: biochemical. The note with it: thiopeptolide substrate, HEPES pH 7.0, 22° C.; read-out: IC50 (μM) Versus Certain MMPs: MMP-13 CD. From the text: (§1) Thiopeptolide substrates show virtually no decomposition or hydrolysis at or below neutral pH in the absence of a matrix metalloproteinase enzyme.

The target of data set [2] is T1, MMP-2FL (full length Gelatinase A) (Homo sapiens, UniProt P08253).
T1 sequence (P08253 110-660): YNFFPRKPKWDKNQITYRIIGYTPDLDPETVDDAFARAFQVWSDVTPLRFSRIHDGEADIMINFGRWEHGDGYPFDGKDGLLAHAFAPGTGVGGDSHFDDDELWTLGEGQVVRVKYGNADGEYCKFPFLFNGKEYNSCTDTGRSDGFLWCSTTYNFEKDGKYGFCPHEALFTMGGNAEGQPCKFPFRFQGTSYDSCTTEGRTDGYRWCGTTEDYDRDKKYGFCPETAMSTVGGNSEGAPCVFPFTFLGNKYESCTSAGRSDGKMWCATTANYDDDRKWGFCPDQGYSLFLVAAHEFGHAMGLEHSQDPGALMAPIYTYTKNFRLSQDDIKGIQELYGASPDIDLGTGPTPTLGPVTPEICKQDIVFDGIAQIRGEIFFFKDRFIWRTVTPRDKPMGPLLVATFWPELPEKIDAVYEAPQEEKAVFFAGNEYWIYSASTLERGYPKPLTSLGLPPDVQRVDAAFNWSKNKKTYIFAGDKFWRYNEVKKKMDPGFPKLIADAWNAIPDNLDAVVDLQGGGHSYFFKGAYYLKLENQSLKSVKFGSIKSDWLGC
As to the kind of experiment: Thiopeptolide substrate hydrolysis assay, MMP-2FL. Conditions: HEPES pH 7.0, 22° C., read-out: IC50 (μM) Versus Certain MMPs: MMP-02 FL. In kind it is biochemical.
Description: (§2) The invention compounds of Formula I have been evaluated in standard assays for their ability to inhibit the catalytic activity of various MMP enzymes.
as §1
(§3) Several representative compounds have been evaluated for their ability to inhibit various matrix metalloproteinase enzymes.

Data set [3] concerns the target MMP-14CD (catalytic domain of MMP-14) (Homo sapiens, UniProt P50281). As to the kind of experiment: Thiopeptolide substrate hydrolysis assay, MMP-14CD. In kind it is biochemical. Conditions: HEPES pH 7.0, 22° C., read-out: IC50 (μM) Versus Certain MMPs: MMP-14 CD.
Description: as §2, §1, §3

The target in data set [4] is T2, MMP-7FL (full length matrilysin) (Homo sapiens, UniProt P09237).
T2 sequence (P09237 95-267): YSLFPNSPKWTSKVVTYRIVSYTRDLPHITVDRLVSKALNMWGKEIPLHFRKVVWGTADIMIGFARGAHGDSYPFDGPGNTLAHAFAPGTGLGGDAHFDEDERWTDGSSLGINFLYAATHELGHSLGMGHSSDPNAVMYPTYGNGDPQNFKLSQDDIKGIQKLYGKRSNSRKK
Put plainly: Thiopeptolide substrate hydrolysis assay, MMP-7FL. Conditions: HEPES pH 7.0, 22° C., read-out: IC50 (μM) Versus Certain MMPs: MMP-07 FL. Format: biochemical.
Description: as §2, §1, §3

Data set [5] has as its target MMP-9FL (full length Gelatinase B) (Homo sapiens, UniProt P14780). Put plainly: Thiopeptolide substrate hydrolysis assay, MMP-9FL. In kind it is biochemical. The note with it: HEPES pH 7.0, 22° C., read-out: IC50 (μM) Versus Certain MMPs: MMP-09 FL.
Description: as §2, §1, §3

The term melting point denotes the temperature of the solid-liquid transition. In general, IC50 refers to the concentration that inhibits the measured activity by half.

The structures appear in SMILES notation. Where a name gives a salt, the structure may show the parent alone.

Sequence of MMP-9FL (full length Gelatinase B) (P14780 94-707, species assumed): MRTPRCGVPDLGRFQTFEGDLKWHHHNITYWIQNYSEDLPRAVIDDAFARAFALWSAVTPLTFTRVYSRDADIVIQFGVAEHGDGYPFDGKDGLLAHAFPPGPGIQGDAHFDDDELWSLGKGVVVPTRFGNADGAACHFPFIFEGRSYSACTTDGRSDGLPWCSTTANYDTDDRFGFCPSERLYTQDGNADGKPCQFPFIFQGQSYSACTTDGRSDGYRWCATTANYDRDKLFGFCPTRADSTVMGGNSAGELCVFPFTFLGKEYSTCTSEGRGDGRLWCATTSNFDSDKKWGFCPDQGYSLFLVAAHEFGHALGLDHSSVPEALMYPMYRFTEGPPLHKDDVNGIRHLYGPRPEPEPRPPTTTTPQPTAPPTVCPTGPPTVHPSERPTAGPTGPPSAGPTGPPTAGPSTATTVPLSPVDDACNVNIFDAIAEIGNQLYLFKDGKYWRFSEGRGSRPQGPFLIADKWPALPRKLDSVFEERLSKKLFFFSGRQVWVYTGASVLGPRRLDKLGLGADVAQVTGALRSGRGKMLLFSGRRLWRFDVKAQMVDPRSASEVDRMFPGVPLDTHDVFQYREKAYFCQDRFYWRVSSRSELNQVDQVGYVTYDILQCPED

In turn, `O=C(NCc1ccccc1)c1cn2c(=O)n(Cc3ccncc3)c(=O)cc2s1` (as salt: hydrochloride) (hydrate or solvate) [Example 15, 6-(4-Pyridylmethyl)-5,7-dioxo-6,7-dihydro-5H-thiazolo[3,2-c]pyrimidine-2-carboxylic acid benzylamide hydrochloride] displayed a melting point above 210 °C.
As for `O=c1cc2sccn2c(=O)n1Cc1ccc(Cl)cc1` [6-(4-Chlorobenzyl)-thiazolo[3,2-c]pyrimidine-5,7-dione], the melting point is 152 to 153.5 °C. The IC50 in data set [1] was above 100 µM.
For the compound `O=C(NCc1ccccc1)c1cn2c(=O)n(C(=O)c3ccccc3)c(=O)cc2s1` [Example 11, 6-Benzoyl-5,7-dioxo-6,7-dihydro-5H-thiazolo[3,2-c]pyrimidine-2-carboxylic acid benzylamide], the melting point was 204 to 207 °C (dec.). Also, in data set [2], the IC50 is above 30 µM. Besides, the half-maximal inhibitory concentration (IC50) in data set [3] is above 30 µM. Also, the IC50 in data set [4] is above 30 µM. In addition, in data set [5], the IC50 was above 30 µM.
For the compound `O=C(NCc1ccccc1)c1cn2c(=O)n(Cc3ccc(Cl)cc3)c(=O)cc2s1` [Example 13, 6-(4-Chlorobenzyl)-5,7-dioxo-6,7-dihydro-5H-thiazolo[3,2-c]pyrimidine-2-carboxylic acid benzylamide], the melting point is above 220 °C. The IC50 in data set [2] is above 100 µM. For the same compound, the IC50 in data set [3] was above 100 µM. Further, the IC50 in data set [4] was above 100 µM. For the same compound, in data set [5], the IC50 is above 100 µM.
In turn, `O=C(NCc1ccc(Cl)c(Cl)c1)c1cn2c(=O)n(Cc3ccc(Cl)cc3)c(=O)cc2s1` [Example 14, 6-(4-Chlorobenzyl)-5,7-dioxo-6,7-dihydro-5H-thiazolo[3,2-c]pyrimidine-2-carboxylic acid 3,4-dichlorobenzylamide] displayed a melting point of 218 to 219 °C. The IC50 in data set [2] is above 30 µM. Besides, the IC50 in data set [3] was above 100 µM. For the same compound, in data set [4], the IC50 was 25 µM. In addition, the IC50 in data set [5] was above 30 µM.
With `Cc1c(=O)n(Cc2ccccc2)c(=O)n2cc(C(=O)NCc3ccccc3)sc12` [Example 16, 6-Benzyl-8-methyl-5,7-dioxo-6,7-dihydro-5H-thiazolo[3,2-c]pyrimidine-2-carboxylic acid benzylamide], the melting point fell in the range of 176 to 178 °C. In data set [2], the IC50 was above 100 µM. The IC50 in data set [3] was above 30 µM. Also, in data set [4], the IC50 was above 30 µM. In data set [5], the IC50 is above 100 µM.
As to `COc1ccc(CNC(=O)c2cn3c(=O)n(Cc4ccccc4)c(=O)c(C)c3s2)cc1` [Example 17, 6-Benzyl-8-methyl-5,7-dioxo-6,7-dihydro-5H-thiazolo[3,2-c]pyrimidine-2-carboxylic acid 4-methoxybenzylamide], the melting point fell in the range of 160 to 162 °C. Moreover, the IC50 in data set [2] is above 30 µM. Also, the IC50 in data set [3] is above 30 µM. Moreover, the half-maximal inhibitory concentration (IC50) in data set [4] is above 30 µM. In data set [5], the IC50 is above 30 µM.
`Cc1c(=O)n(Cc2ccccc2)c(=O)n2cc(C(=O)NCc3ccc(Cl)c(Cl)c3)sc12` [Example 18, 6-Benzyl-8-methyl-5,7-dioxo-6,7-dihydro-5H-thiazolo[3,2-c]pyrimidine-2-carboxylic acid 3,4-dichlorobenzylamide]: the melting point was in the range of 180 to 182 °C. For the same compound, the IC50 in data set [2] was above 30 µM. The IC50 in data set [3] is above 30 µM. The IC50 in data set [4] was above 30 µM. In data set [5], the IC50 is above 30 µM.
`Cc1c(=O)[nH]c(=O)n2cc(C(=O)O)sc12` [Example 54, 8-Methyl-5,7-dioxo-6,7-dihydro-5H-thiazolo[3,2-c]pyrimidine-2-carboxylic acid] displayed a melting point above 205 °C.
The compound `COc1ccc(CNC(=O)c2cn3c(=O)n(Cc4ccc(C(=O)O)cc4)c(=O)c(C)c3s2)cc1` [Example 55, 4-[2-(4-Methoxy-benzylcarbamoyl)-8-methyl-5,7-dioxo-7H-thiazolo[3,2-c]pyrimidin-6-ylmethyl]-benzoic acid] displayed a melting point above 210 °C.
As to `Cc1c(=O)n(Cc2ccc(C(=O)O)cc2)c(=O)n2cc(C(=O)NCc3ccc(F)cc3)sc12` [Example 58, 4-[2-(4-Fluoro-benzylcarbamoyl)-8-methyl-5,7-dioxo-7H-thiazolo[3,2-c]pyrimidin-6-ylmethyl]-benzoic acid], the IC50 in data set [2] is above 100 µM; in data set [3], above 100 µM; in data set [4], above 100 µM; in data set [1] it was 0.00222 µM; in data set [5], above 100 µM.
Turning to `COC(=O)c1ccc(Cn2c(=O)c(C)c3sc(C(=O)NCc4ccc(F)cc4)cn3c2=O)cc1Cl` [Example 65, 2-Chloro-4-[2-(4-fluoro-benzylcarbamoyl)-8-methyl-5,7-dioxo-7H-thiazolo[3,2-c]pyrimidin-6-ylmethyl]-benzoic acid methyl ester], the melting point fell in the range of 176 to 178 °C. Besides, the IC50 in data set [2] is above 30 µM. In addition, in data set [3], the IC50 is above 30 µM. In data set [4], the IC50 is 26 µM. The IC50 in data set [5] is above 30 µM.
Compound `COC(=O)c1ccc(Cn2c(=O)c(C)c3sc(C(=O)NCc4ccc(F)cc4)cn3c2=O)cc1C` [Example 68, 4-[2-(4-Fluoro-benzylcarbamoyl)-8-methyl-5,7-dioxo-7H-thiazolo[3,2-c]pyrimidin-6-ylmethyl]-2-methyl-benzoic acid methyl ester] yielded a melting point of 179 to 180 °C. Moreover, the IC50 in data set [2] was above 100 µM. For the same compound, the IC50 in data set [3] was above 100 µM. The IC50 in data set [4] is above 100 µM. Besides, the IC50 in data set [5] is above 100 µM.
Take `Cc1c(=O)n(Cc2ccc(C#N)cc2)c(=O)n2cc(C(=O)NCc3ccncc3)sc12` [Example 85, 6-(4-Cyano-benzyl)-8-methyl-5,7-dioxo-6,7-dihydro-5H-thiazolo[3,2-c]pyrimidine-2-carboxylic acid(pyridin-4-ylmethyl)-amide hydrochloride]: the IC50 is above 30 µM in data set [2]; above 30 µM in data set [3]; above 30 µM in data set [4]; 0.0547 µM in data set [1]; above 30 µM in data set [5].
Consider `COc1ccc(CNC(=O)c2cn3c(=O)n(Cc4ccc(Cl)c(Cl)c4)c(=O)cc3s2)cc1` [Example 102, 6-(3,4-Dichloro-benzyl)-5,7-dioxo-6,7-dihydro-5H-thiazolo[3,2-c]pyrimidine-2-carboxylic acid 4-methoxy-benzylamide], for which the melting point was in the range of 206 to 207 °C.
Same read-out and setting: next, `Cc1c(=O)n(Cc2ccc(C(=O)OC(C)(C)C)cc2)c(=O)n2ccsc12` [Example 104, 4-(8-Methyl-5,7-dioxo-7H-thiazolo[3,2-c]pyrimidin-6-ylmethyl)-benzoic acid tert-butyl ester]: 163 to 165 °C.
`COC(=O)c1ccc(Cn2c(=O)c(C)c3sc(C(=O)NCc4cccc(F)c4)cn3c2=O)cc1` [Example 105, 4-[2-(3-Fluoro-benzylcarbamoyl)-8-methyl-5,7-dioxo-7H-thiazolo[3,2-c]pyrimidin-6-ylmethyl]-benzoic acid methyl ester] showed a melting point of 209 to 211 °C. In data set [2], the IC50 is above 30 µM. In addition, in data set [3], the IC50 is above 30 µM. The IC50 in data set [4] is 27 µM. Further, the IC50 in data set [5] is above 30 µM.
As for `COC(=O)c1ccc(Cn2c(=O)c(C)c3sc(C(=O)NCc4ccc(F)cc4)cn3c2=O)cc1` [Example 106, 4-[2-(4-Fluoro-benzylcarbamoyl)-8-methyl-5,7-dioxo-7H-thiazolo[3,2-c]pyrimidin-6-ylmethyl]-benzoic acid methyl ester], the melting point was above 215 °C. Also, in data set [2], the IC50 is above 30 µM. For the same compound, the IC50 in data set [3] is above 100 µM. In addition, the IC50 in data set [4] is above 30 µM. Moreover, the IC50 in data set [5] was above 100 µM.
Compound `Cc1c(=O)n(Cc2ccc(C#N)cc2)c(=O)n2cc(C(=O)NCc3ccc(F)cc3)sc12` [Example 107, 6-(4-Cyano-benzyl)-8-methyl-5,7-dioxo-6,7-dihydro-5H-thiazolo[3,2-c]pyrimidine-2-carboxylic acid 4-fluoro-benzylamide] registered a melting point above 220 °C. In addition, the IC50 in data set [2] was above 30 µM. The IC50 in data set [3] was above 30 µM. Further, the IC50 in data set [4] was above 30 µM. The IC50 in data set [5] was above 30 µM.
